# Experiment: recombinant UMI read abundance after kanamycin selection (control-corrected) (log10(CPM+1)); higher = more efficient recombination; extreme values may be limits of the assay; sequences stand for … in AGTGCAGAGAAAATCGGCCAGTTTTCTCTGCCTGCAGTCCGCATGCCGTGGGACCCCTTGGGTTCTAACCTGTTGCCTAGATTTATGCAGCGGACTGCCTTTCTCCCAAAGTGATAAACCGG…AGGTTGGTTTCACT; site = the 11-nt donor
# Summary of the method: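 Values are reported as log10(CPM+1), obtained by converting sequencing counts to CPM, averaging replicates and scaling by control-derived factors. The counts came from recombinant UMIs amplified by PCR across the donor–target junction. These UMIs came from a pooled Escherichia coli screen of donor and donor-binding-loop pairs for the IS621 bridge recombinase, plated with IPTG (0.07 mM) plus kanamycin or left unselected, in two replicates each.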
# 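Also: IS621 bridge recombinase in Escherichia coli cells against a fixed T5 target plasmid.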
row,Sequence,recombinant UMI read abundance (log10)
1,CTTGTGTCATGGACCGGTTTTCCCGGTAATCCGTATTTGGG (site CTTGTGTCTCC),0.208
2,GAAAACCCATGGACCGGTTTTCCCGGTAATCCGTATTTGAT (site GAAAACCCTAT),0
3,GAAAAGGCATGGACCGGTTTTCCCGGTAATCCGTATTTGTT (site GAAAAGGCTAA),2.58
4,GAAAATGCATGGACCGGTTTTCCCGGTAATCCGTATTTGAG (site GAAAATGCTCT),2.25
5,GAAACCACATGGACCGGTTTTCCCGGTAATCCGTATTTGGT (site GAAACCACTAC),0.48
6,GAAAGTCCATGGACCGGTTTTCCCGGTAATCCGTATTTGGA (site GAAAGTCCTTC),0.0128
7,GAACATACATGGACCGGTTTTCCCGGTAATCCGTATTTGGG (site GAACATACTCC),0.24
8,GAACGTACATGGACCGGTTTTCCCGGTAATCCGTATTTGCT (site GAACGTACTAG),2.26
9,GAAGATACATGGACCGGTTTTCCCGGTAATCCGTATTTGTT (site GAAGATACTAA),2.29
10,GAAGATACATGGACCGGTTTTCCCGGTAATCCGTATTTGTT (site GAAGATCCTAA),0.00569
11,GAAGATACATGGACCGGTTTTCCCGGTAATCCGTATTTGTT (site GAAGATGCTAA),0.602
12,GAAGATACATGGACCGGTTTTCCCGGTAATCCGTATTTGTT (site GAAGATTCTAA),0
13,GAAGATTCATGGACCGGTTTTCCCGGTAATCCGTATTTGTT (site AAAGATTCTAA),1.45
14,GAAGATTCATGGACCGGTTTTCCCGGTAATCCGTATTTGTT (site CAAGATTCTAA),1.81
15,GAAGATTCATGGACCGGTTTTCCCGGTAATCCGTATTTGTT (site GAAAATTCTAA),0.371
16,GAAGATTCATGGACCGGTTTTCCCGGTAATCCGTATTTGTT (site GAACATTCTAA),0
17,GAAGATTCATGGACCGGTTTTCCCGGTAATCCGTATTTGTT (site GAAGAATCTAA),1.3
18,GAAGATTCATGGACCGGTTTTCCCGGTAATCCGTATTTGTT (site GAAGACTCTAA),1.24
19,GAAGATTCATGGACCGGTTTTCCCGGTAATCCGTATTTGTT (site GAAGAGTCTAA),0.0122
20,GAAGATTCATGGACCGGTTTTCCCGGTAATCCGTATTTGTT (site GAAGATACTAA),0.46
21,GAAGATTCATGGACCGGTTTTCCCGGTAATCCGTATTTGTT (site GAAGATCCTAA),1.92
22,GAAGATTCATGGACCGGTTTTCCCGGTAATCCGTATTTGTT (site GAAGATGCTAA),0.0075
23,GAAGATTCATGGACCGGTTTTCCCGGTAATCCGTATTTGTT (site GAAGATTCTAA),2.86
24,GAAGATTCATGGACCGGTTTTCCCGGTAATCCGTATTTGTT (site GAAGATTCTAC),0.242
25,GAAGATTCATGGACCGGTTTTCCCGGTAATCCGTATTTGTT (site GAAGATTCTAG),0.838

row,Sequence,recombinant UMI read abundance (log10)
1,GAAGATTCATGGACCGGTTTTCCCGGTAATCCGTATTTGTT (site GAAGATTCTAT),1.5
2,GAAGATTCATGGACCGGTTTTCCCGGTAATCCGTATTTGTT (site GAAGATTCTCA),0.868
3,GAAGATTCATGGACCGGTTTTCCCGGTAATCCGTATTTGTT (site GAAGATTCTGA),0
4,GAAGATTCATGGACCGGTTTTCCCGGTAATCCGTATTTGTT (site GAAGATTCTTA),1.2
5,GAAGATTCATGGACCGGTTTTCCCGGTAATCCGTATTTGTT (site GAAGCTTCTAA),0.0109
6,GAAGATTCATGGACCGGTTTTCCCGGTAATCCGTATTTGTT (site GAAGGTTCTAA),0.0539
7,GAAGATTCATGGACCGGTTTTCCCGGTAATCCGTATTTGTT (site GAAGTTTCTAA),0
8,GAAGATTCATGGACCGGTTTTCCCGGTAATCCGTATTTGTT (site GAATATTCTAA),0
9,GAAGATTCATGGACCGGTTTTCCCGGTAATCCGTATTTGTT (site GACGATTCTAA),0
10,GAAGATTCATGGACCGGTTTTCCCGGTAATCCGTATTTGTT (site GAGGATTCTAA),0
11,GAAGATTCATGGACCGGTTTTCCCGGTAATCCGTATTTGTT (site GATGATTCTAA),0.296
12,GAAGATTCATGGACCGGTTTTCCCGGTAATCCGTATTTGTT (site GCAGATTCTAA),0.013
13,GAAGATTCATGGACCGGTTTTCCCGGTAATCCGTATTTGTT (site GGAGATTCTAA),0.379
14,GAAGATTCATGGACCGGTTTTCCCGGTAATCCGTATTTGTT (site GTAGATTCTAA),0.39
15,GAAGATTCATGGACCGGTTTTCCCGGTAATCCGTATTTGTT (site TAAGATTCTAA),2.36
16,GAAGCAACATGGACCGGTTTTCCCGGTAATCCGTATTTGCC (site GAAGCAACTGG),2.09
17,GAAGCTTCATGGACCGGTTTTCCCGGTAATCCGTATTTGTT (site GAAGATTCTAA),0
18,GAAGCTTCATGGACCGGTTTTCCCGGTAATCCGTATTTGTT (site GAAGCTTCTAA),1.74
19,GAAGCTTCATGGACCGGTTTTCCCGGTAATCCGTATTTGTT (site GAAGGTTCTAA),0
20,GAAGCTTCATGGACCGGTTTTCCCGGTAATCCGTATTTGTT (site GAAGTTTCTAA),0
21,GAAGTATCATGGACCGGTTTTCCCGGTAATCCGTATTTGCA (site ACAGTATCTTG),1.54
22,GAAGTATCATGGACCGGTTTTCCCGGTAATCCGTATTTGCA (site GAAGTATCTTG),2.6
23,GAATATGCATGGACCGGTTTTCCCGGTAATCCGTATTTGAA (site GAATATGCTTT),2.09
24,GAATCCGCATGGACCGGTTTTCCCGGTAATCCGTATTTGTC (site GAATCCGCTGA),2.15
25,GAATCTACATGGACCGGTTTTCCCGGTAATCCGTATTTGCG (site GAATCTACTCG),1.04

row,Sequence,recombinant UMI read abundance (log10)
1,GAATGAGCATGGACCGGTTTTCCCGGTAATCCGTATTTGGA (site GAATGAGCTTC),1.28
2,GAATGCCCATGGACCGGTTTTCCCGGTAATCCGTATTTGCA (site GAATGACCTTG),0
3,GAATGCCCATGGACCGGTTTTCCCGGTAATCCGTATTTGCA (site GAATGCCCTTG),1.25
4,GAATGCCCATGGACCGGTTTTCCCGGTAATCCGTATTTGCA (site GAATGGCCTTG),0
5,GAATGCCCATGGACCGGTTTTCCCGGTAATCCGTATTTGCA (site GAATGTCCTTG),0
6,GAATGTCCATGGACCGGTTTTCCCGGTAATCCGTATTTGCA (site GAATGACCTTG),0
7,GAATGTCCATGGACCGGTTTTCCCGGTAATCCGTATTTGCA (site GAATGCCCTTG),0
8,GAATGTCCATGGACCGGTTTTCCCGGTAATCCGTATTTGCA (site GAATGGCCTTG),0
9,GAATGTCCATGGACCGGTTTTCCCGGTAATCCGTATTTGCA (site GAATGTCCTTG),1.28
10,GAATTCCCATGGACCGGTTTTCCCGGTAATCCGTATTTGCT (site AAATTCCCTAG),0
11,GAATTCCCATGGACCGGTTTTCCCGGTAATCCGTATTTGCT (site CAATTCCCTAG),0.484
12,GAATTCCCATGGACCGGTTTTCCCGGTAATCCGTATTTGCT (site GAATTCCCTAG),0.671
13,GAATTCCCATGGACCGGTTTTCCCGGTAATCCGTATTTGCT (site TAATTCCCTAG),0.902
14,GACAAACCATGGACCGGTTTTCCCGGTAATCCGTATTTGGC (site GACAAACCTAC),0
15,GACAAACCATGGACCGGTTTTCCCGGTAATCCGTATTTGGC (site GACAAACCTCC),0
16,GACAAACCATGGACCGGTTTTCCCGGTAATCCGTATTTGGC (site GACAAACCTGC),0
17,GACAAACCATGGACCGGTTTTCCCGGTAATCCGTATTTGGC (site GACAAACCTTC),0
18,GACAAAGCATGGACCGGTTTTCCCGGTAATCCGTATTTGGT (site GACAAAACTAC),0.00355
19,GACAAAGCATGGACCGGTTTTCCCGGTAATCCGTATTTGGT (site GACAAACCTAC),0
20,GACAAAGCATGGACCGGTTTTCCCGGTAATCCGTATTTGGT (site GACAAAGCTAC),1.13
21,GACAAAGCATGGACCGGTTTTCCCGGTAATCCGTATTTGGT (site GACAAATCTAC),0
22,GACAAGACATGGACCGGTTTTCCCGGTAATCCGTATTTGTG (site GACAAGACTCA),1.73
23,GACAATACATGGACCGGTTTTCCCGGTAATCCGTATTTGGC (site GACAATACTGC),1.59
24,GACACGCCATGGACCGGTTTTCCCGGTAATCCGTATTTGTA (site GACACGCCTTA),0.0256
25,GACACGCCATGGACCGGTTTTCCCGGTAATCCGTATTTGTA (site GCCACGCCTTA),0.176
